Reference: PMC12951562, “SH2scan: Mapping SH2 Domain-Ligand Binding Selectivity for Inhibitors and Degraders” (Journal of Medicinal Chemistry, 2026)
Read-outs that look alike come from different tables or passages of the source. Non-standard residues stand in square brackets, D forms with d. Residues, ends and D or L forms follow the SMILES beside them. pY = N[C@@H](Cc1ccc(OP(=O)(O)O)cc1)C(=O)O

Columns and labels:
Assay in all cases: biochemical
[1] = molecular target: T1, STAT3(N567K)-nonphosphorylated (Homo sapiens, UniProt P40763, N567K); assay type: binding
T1 construct: made in house; host or cells: HEK293 (transient transfection), unpurified extract, dephosphorylated by endogenous phosphatases

[2] = molecular target: T2, STAT3(Y640F)-nonphosphorylated (Homo sapiens, UniProt P40763, Y640F); assay type: binding
T2 construct: made in house; host or cells: HEK293 (transient transfection), unpurified extract, dephosphorylated by endogenous phosphatases

[3] = molecular target: T3, STAT3(E616del)-nonphosphorylated (Homo sapiens, UniProt P40763, DEL616-616); assay type: binding
T3 construct: made in house; host or cells: HEK293 (transient transfection), unpurified extract, dephosphorylated by endogenous phosphatases

[4] = molecular target: T4, SH2D1A (Homo sapiens, UniProt O60880); assay type: binding; conditions: for remaining activity at 10 µM: read-out: percent of DMSO vehicle control
T4 construct: made in house; host or cells: HEK293 (transient transfection), unpurified extract
T4 sequence (O60880 1-128): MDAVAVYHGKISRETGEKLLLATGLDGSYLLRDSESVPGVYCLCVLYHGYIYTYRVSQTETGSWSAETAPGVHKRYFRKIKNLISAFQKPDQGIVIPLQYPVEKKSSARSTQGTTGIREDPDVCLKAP

[5] = molecular target: T5, STAT5A (Homo sapiens, UniProt P42229); assay type: binding
T5 construct: made in house; host or cells: HEK293 (transient transfection), unpurified extract
T5 sequence (P42229 1-794): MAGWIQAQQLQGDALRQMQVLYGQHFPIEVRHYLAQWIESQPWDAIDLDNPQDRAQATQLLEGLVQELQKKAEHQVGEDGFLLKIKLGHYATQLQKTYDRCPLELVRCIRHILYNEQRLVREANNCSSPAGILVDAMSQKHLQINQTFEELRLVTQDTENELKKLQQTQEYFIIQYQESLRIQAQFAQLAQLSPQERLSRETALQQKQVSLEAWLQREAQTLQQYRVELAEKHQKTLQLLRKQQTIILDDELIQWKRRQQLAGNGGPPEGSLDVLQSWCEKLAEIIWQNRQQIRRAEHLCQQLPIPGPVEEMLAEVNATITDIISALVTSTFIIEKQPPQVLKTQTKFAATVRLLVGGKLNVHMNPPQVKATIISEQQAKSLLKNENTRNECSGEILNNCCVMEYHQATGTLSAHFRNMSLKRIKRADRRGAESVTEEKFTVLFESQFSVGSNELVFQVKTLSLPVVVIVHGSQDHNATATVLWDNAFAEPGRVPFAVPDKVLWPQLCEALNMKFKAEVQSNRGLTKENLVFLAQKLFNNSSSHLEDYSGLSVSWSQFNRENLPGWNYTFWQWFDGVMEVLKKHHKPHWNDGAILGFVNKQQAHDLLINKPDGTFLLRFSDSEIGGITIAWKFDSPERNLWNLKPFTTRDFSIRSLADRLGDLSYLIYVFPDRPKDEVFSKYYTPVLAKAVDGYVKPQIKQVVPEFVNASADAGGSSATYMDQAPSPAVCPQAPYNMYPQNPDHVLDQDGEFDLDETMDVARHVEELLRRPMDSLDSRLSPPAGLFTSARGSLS

[6] = molecular target: T6, PTPN11(SH2dom.C-term.) (Homo sapiens, UniProt Q06124); assay type: binding; conditions: primary screen, 10 μM
T6 construct: SH2dom.C-term. denotes SH2 domain closest to C-terminus of protein; made in house; host or cells: HEK293 (transient transfection, unpurified extract)
T6 sequence (Q06124 112-216 limits assumed): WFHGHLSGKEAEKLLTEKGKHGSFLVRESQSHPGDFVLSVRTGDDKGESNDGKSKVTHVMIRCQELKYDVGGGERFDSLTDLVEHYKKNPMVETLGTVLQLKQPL

[7] = molecular target: T7, STAT3 (Homo sapiens, UniProt P40763); assay type: binding
T7 construct: made in house; host or cells: HEK293 (transient transfection), unpurified extract

[8] = molecular target: T8, STAT5B (Homo sapiens, UniProt P51692); assay type: binding
T8 construct: made in house; host or cells: HEK293 (transient transfection), unpurified extract
T8 sequence (P51692 1-787): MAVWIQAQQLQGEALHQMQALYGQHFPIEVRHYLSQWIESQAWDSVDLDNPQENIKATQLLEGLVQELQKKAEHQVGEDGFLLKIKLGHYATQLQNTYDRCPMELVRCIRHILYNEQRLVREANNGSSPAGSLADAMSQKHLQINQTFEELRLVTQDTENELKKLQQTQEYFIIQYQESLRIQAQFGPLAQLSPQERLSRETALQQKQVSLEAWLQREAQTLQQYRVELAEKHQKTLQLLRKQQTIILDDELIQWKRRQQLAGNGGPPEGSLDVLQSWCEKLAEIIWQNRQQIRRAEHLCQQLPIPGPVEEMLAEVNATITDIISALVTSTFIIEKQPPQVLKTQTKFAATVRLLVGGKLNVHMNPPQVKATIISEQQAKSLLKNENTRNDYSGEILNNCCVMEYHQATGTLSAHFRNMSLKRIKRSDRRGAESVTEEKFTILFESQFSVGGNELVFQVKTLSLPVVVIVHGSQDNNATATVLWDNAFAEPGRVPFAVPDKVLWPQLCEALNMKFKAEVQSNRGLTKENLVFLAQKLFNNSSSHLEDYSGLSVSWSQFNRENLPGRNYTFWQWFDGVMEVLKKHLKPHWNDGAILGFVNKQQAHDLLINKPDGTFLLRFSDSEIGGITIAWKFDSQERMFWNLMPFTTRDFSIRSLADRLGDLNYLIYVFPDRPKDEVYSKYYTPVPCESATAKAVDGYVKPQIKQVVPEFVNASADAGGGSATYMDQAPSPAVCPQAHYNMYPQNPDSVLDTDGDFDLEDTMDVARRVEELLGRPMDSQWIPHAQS

[9] = molecular target: T9, STAT3(N647I)-nonphosphorylated (Homo sapiens, UniProt P40763, N647I); assay type: binding
T9 construct: made in house; host or cells: HEK293 (transient transfection), unpurified extract, dephosphorylated by endogenous phosphatases

[10] = molecular target: T10, ZAP70(SH2dom1.dom2.) (Homo sapiens, UniProt P43403); conditions: read-out: percent of DMSO vehicle control
T10 sequence (P43403 1-254 limits assumed): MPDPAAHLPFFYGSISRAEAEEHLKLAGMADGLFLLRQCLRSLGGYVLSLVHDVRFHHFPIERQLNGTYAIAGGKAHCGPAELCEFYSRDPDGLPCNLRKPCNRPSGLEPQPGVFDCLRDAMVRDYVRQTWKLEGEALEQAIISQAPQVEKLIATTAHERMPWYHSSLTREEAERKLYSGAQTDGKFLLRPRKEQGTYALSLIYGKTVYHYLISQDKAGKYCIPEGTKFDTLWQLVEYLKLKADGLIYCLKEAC

[11] = read-out: percent of DMSO vehicle control
[12] = primary screen, 10 μM, read-out: percent of DMSO vehicle control

CC[C@H](C)[C@H](NC(=O)[C@H](CCC(=O)O)NC(=O)[C@H](CCC(=O)O)NC(=O)[C@H](Cc1ccc(OP(=O)(O)O)cc1)NC(C)=O)C(=O)N[C@@H](CCC(=O)O)C(N)=O [Ac-pYEEIE-NH2] (Ac-[pY]EEIE-NH2)
percent of DMSO vehicle control ([1]; primary screen, 10 μM): 94.9±0.8% | percent of DMSO vehicle control ([2]; primary screen, 10 μM): 156.0% | percent of DMSO vehicle control ([3]; primary screen, 10 μM): 86.7±0.4% | percent of DMSO vehicle control ([4]; primary screen, 10 μM): 93.4% | percent of DMSO vehicle control ([5]; primary screen, 10 μM): 94.4±4.9% | percent of DMSO vehicle control [6]: 133.6% | percent of DMSO vehicle control ([7]; primary screen, 10 μM): 151.4% | percent of DMSO vehicle control ([8]; primary screen, 10 μM): 21.8±4.7% | percent of DMSO vehicle control ([9]; primary screen, 10 μM): 97.9±8.6%

NC(=O)CC[C@H](NC(=O)[C@@H]1CC[C@@H]2CCN(C(=O)CCCCCC#Cc3cccc4c3CN(C3CCC(=O)NC3=O)C4=O)C[C@H](NC(=O)c3cc4cc(C(F)(F)P(=O)(O)O)ccc4[nH]3)C(=O)N21)C(=O)NC(c1ccccc1)c1ccccc1 (stereo partly shown) [SD-36]
Kd ([1]; dose-response): 30 ± 11 nM | percent of DMSO vehicle control at 10 µM [1, 11]: 0.1% | Kd ([2]; dose-response): 80 ± 27 nM | percent of DMSO vehicle control at 10 µM [2, 11]: 0.2 ± 0.6% | remaining activity at 10 µM [10]: 95.6 ± 1.3% | Kd ([3]; dose-response): 28 ± 11 nM | percent of DMSO vehicle control at 10 µM [3, 11]: 0% | remaining activity at 10 µM [4]: 354% | Kd ([5]; dose-response): 1600 ± 670 nM | percent of DMSO vehicle control at 10 µM [5, 11]: 3.4 ± 0.4% | percent of DMSO vehicle control [6]: 104.4±9.8% | Kd ([7]; dose-response): 21 nM | percent of DMSO vehicle control at 10 µM [7, 11]: 0.1 ± 0.1% | Kd ([8]; dose-response): 2030 ± 820 nM | percent of DMSO vehicle control at 10 µM [8, 11]: 5.7 ± 0.1% | Kd ([9]; dose-response): 63 ± 23 nM | percent of DMSO vehicle control at 10 µM [9, 11]: 0%

CC(C)(C)[C@H](NC(=O)/C=C/c1ccc(OP(=O)(O)O)cc1)C(=O)N1CCC[C@H]1C(=O)N(c1ccccc1)c1ccc(I)cc1 [STAT6-IN-3]
Kd ([1]; dose-response, read-out: KD): 500 ± 200 nM | remaining activity at 10 µM [1, 12]: 0.2 ± 0.3% | Kd ([2]; dose-response, read-out: KD): 95 ± 40 nM | remaining activity at 10 µM [2, 12]: 2.4 ± 6.1% | remaining activity at 10 µM [10]: 60.7 ± 32.9% | Kd ([3]; dose-response, read-out: KD): 280 ± 120 nM | remaining activity at 10 µM [3, 12]: 0.4 ± 0.4% | remaining activity at 10 µM ([4]; primary screen, 10 μM): 68.5 ± 43.7% | Kd ([5]; dose-response, read-out: KD): 46 ± 19 nM | remaining activity at 10 µM [5, 12]: 0% | percent of DMSO vehicle control [6]: 37.9±11.0% | Kd ([7]; dose-response, read-out: KD): 370 ± 162 nM | remaining activity at 10 µM [7, 12]: 0.7 ± 0.2% | Kd ([8]; dose-response, read-out: KD): 69 ± 42 nM | remaining activity at 10 µM [8, 12]: 0% | Kd ([9]; dose-response, read-out: KD): 1500 ± 750 nM | remaining activity at 10 µM [9, 12]: 2.1 ± 3.7%

CC(=O)N[C@@H](Cc1ccc(CP(=O)(O)O)cc1)C(=O)NC1(C(=O)N[C@@H](CC(N)=O)C(=O)NCCCc2c(O)ccc3ccccc23)CCCCC1 [CGP78850]
percent of DMSO vehicle control at 10 µM [1, 11]: 78.3 ± 2% | percent of DMSO vehicle control at 10 µM [2, 11]: 118 ± 3.3% | remaining activity at 10 µM [10]: 91.6 ± 5.3% | percent of DMSO vehicle control at 10 µM [3, 11]: 71.8 ± 6.4% | remaining activity at 10 µM [4]: 63.8 ± 17.1% | percent of DMSO vehicle control at 10 µM [5, 11]: 84.9 ± 21% | percent of DMSO vehicle control [6]: 127.5±18.4% | percent of DMSO vehicle control at 10 µM [7, 11]: 80.9 ± 6.4% | percent of DMSO vehicle control at 10 µM [8, 11]: 89.6 ± 6.1% | percent of DMSO vehicle control at 10 µM [9, 11]: 80.6 ± 2.9%

CC(=O)N1CC[C@H]2CC[C@@H](C(=O)N[C@@H](CCC(N)=O)C(=O)NC(c3ccccc3)c3ccccc3)N2C(=O)[C@@H](NC(=O)c2cc3cc(C(F)(F)P(=O)(O)O)ccc3[nH]2)C1 [SI-109]
Kd [1]: 12 ± 1.8 nM | percent of DMSO vehicle control at 10 µM [1, 11]: 0.2% | Kd [2]: 78 ± 44 nM | percent of DMSO vehicle control at 10 µM [2, 11]: 5.8 ± 3.7% | remaining activity at 10 µM [10]: 129% | Kd [3]: 8.7 ± 3.4 nM | percent of DMSO vehicle control at 10 µM [3, 11]: 0.1% | remaining activity at 10 µM [4]: 87.6% | Kd [5]: 7030 ± 2200 nM | percent of DMSO vehicle control at 10 µM [5, 11]: 101% | percent of DMSO vehicle control [6]: 136.9% | Kd [7]: 15 nM | percent of DMSO vehicle control at 10 µM [7, 11]: 0.4 ± 0.1% | Kd [8]: 18000 ± 4000 nM | percent of DMSO vehicle control at 10 µM [8, 11]: 109% | Kd [9]: 25 ± 8.3 nM | percent of DMSO vehicle control at 10 µM [9, 11]: 0.5 ± 0.1%
